Read-outs that look alike come from different tables or passages of the source.
Legend:
rabbit [1] = details: in vivo, 16 mg/kg
mouse = test: Acute toxicity (DL50) in the mouse; type: in vivo
Source text: In particular, the DL50 in the mouse in greater than 2.5 g/kg/os and 1.00 g/kg/i.p.

edema by carragenine = test: Edema by carragenine (acute inflammation); type: in vivo; details: orally 8 to 40 mg/kg; parenterally 4 to 8 mg/kg; in comparison with Ibuprofen, Indometacina
Source text: (§1) Of the various tests we shall mention the most classic, namely the edema by carragenine and by egg white as a test for acute inflammation; and granuloma by cotton pellets and arthritis by adjuvant as a test for chronic inflammation. […] The analgesia tests were in the form of the hot plate test and stretching by acetic acid, and the Randal and Selitto test in the rat.

[2] = test system: granuloma by cotton pellets; test: Granuloma by cotton pellets (chronic inflammation); type: in vivo; details: orally 8 to 40 mg/kg; parenterally 4 to 8 mg/kg; in comparison with Ibuprofen, Indometacina
Source text: as §1

[3] = test system: subjects with hyperdislipidemia in the uncompensated stage; test: Clinical tests: hyperdislipidemia; type: in vivo, human; details: 2-3 times per day
rabbits = details: rabbit, in vivo
arthritis by adjuvant = test: Arthritis by adjuvant (chronic inflammation); type: in vivo; details: orally 8 to 40 mg/kg; parenterally 4 to 8 mg/kg; in comparison with Ibuprofen, Indometacina
Source text: as §1

cat = details: in vivo, 16 mg/kg
[4] = test system: neuritis, polyneuritis, anthralgia, sciatica, radiocolitis, torticollis; cephalalgia
Procedure: The antalgic activity of SAM was also tested in different subjects with different neurological frameworks: neuritis, polyneuritis, anthralgia, sciatica, radiocolitis, torticollis.

hepatic steatosis = test: Hepatic steatosis models in rats (Handler diet, acute alcoholic intoxication, toxic agents); type: in vivo, rat
Source text: (§2) This was confirmed by subsequent pharmacological tests.

rabbit [5] = test: Local tolerability of injections; type: in vivo
[6] = test system: subjects with hypoprotidemias, disprotidemias, chronic hepatopathias, precyrrotic and cyrrotic states, malabsorption and protide dispersing syndromes; test: Clinical tests: hypoprotidemias, chronic hepatopathias, cyrrotic states, malabsorption; type: in vivo, human; details: 20 to 80 mg per day, intermuscular, intravenous or oral
Procedure: 2. Hundreds of subjects were treated clinically affected with: secondary hypoprotidemias and disprotidemias; persistent and aggressive chronic hepatopathias; precyrrotic and cyrrotic states; malabsorption syndromes, and protide dispersing syndromes.

[7] = in vivo, 4.2 mg/kg; for Distribution of SAM in rat tissues: Hypophysis / Distribution of SAM in rat tissues: Hypothalamus / Distribution of SAM in rat tissues: Liver / Distribution of SAM in rat tissues: Plasma / Distribution of SAM in rat tissues: Rind / Distribution of SAM in rat tissues: Spleen / Distribution of SAM in rat tissues: Suprarenal glands: iv
Procedure: In order to indicatively determine how SAM is distributed in the tissues, S-Adenosilmethionine (Methyl C^14) was prepared. The distribution of this product in rats was studied by administering a dose of 4.2 mg/kg/e.v. equal to approxymately 10 μci of radioactive product. The specific activity of the product was 58 mCi/m moles.

[8] = test system: clear arteriosclerosis with clinical manifestations of the psycho-affective sphere; test: Clinical tests: arteriosclerosis, hypoxydotic states, post-apoplectic syndromes; type: in vivo, human
Randal and Selitto test = test: Randal and Selitto analgesia test in the rat; type: in vivo; details: in comparison with known drugs studied
Source text: as §1

[9] = test system: disturbances of the sleeping-waking rhythm, insomnia; test: Clinical tests: disturbances of the sleeping-waking rhythm; type: in vivo, human; details: 4-13 mg orally
osteoarthritic forms = test: Clinical tests: osteoarthritis; type: in vivo, human
rats = details: rat, in vivo
hepatic phospholipids = test: Hepatic phospholipids in rats after intoxication with CCl4; type: in vivo, rat
Source text: as §2
Hepatic phospholipids in rats after intoxication with CCl4 and treatment with SAM.
The values are the averages ± E.S. of 10 values for each group. In studying the hepatoprotective activity we have used an experimental device which produces in the rat the so-called hepatic cholesterol degeneration (Ridout and Coll., Biochem. J. 52, 99, 1952).

[10] = mouse, in vivo
Source text: Parallel with this, an autoradiographic study was made on the mouse.

[11] = test system: sleeping time induced by hexobarbital; test: Hexobarbital sleeping time in mice (Holten and Larsen); type: in vivo
Procedure: A further aspect considered by us was the possible action of SAM on the sleeping time by barbiturates.
For this purpose an experiment was carried out in which groups of mice received hexobarbital in a dose of 80 mg/kg/i.p. in accordance with the method of Holten and Larsen (Acta Pharmacol. Toxicol. 1956, 12, 346); one group was the control group and the second received SAM in a dose of 4 mg/kg/i.p. (table).

C[S+](CC[C@H](N)C(=O)O)C[C@H]1O[C@@H](n2cnc3c(N)ncnc32)[C@H](O)[C@@H]1O (stereo partly drawn) [SAM, S-Adenosil-L-Methionine]
carotid pressure, cardiac and respiratory frequency, electrocardiac trace (rabbit [1]): does not cause any change
DL50 in the mouse (mouse; i.p.): > 1.00 g/kg
DL50 in the mouse (mouse; os): greater than 2.5 g/kg
anti-inflammatory activity (edema by carragenine): active
anti-inflammatory activity [2]: active
dose dependence of hypocholesterolemising and hypolipemising action ([3]; doses of about 8-1.5 mg): proportional to the dose
hypertriglyceridemia ([3]; hyperdislipidemia): a marked fall
total cholesterolemia ([3]; hyperdislipidemia): a marked fall
β/α lipoproteic ratios ([3]; hyperdislipidemia): normalises
teratogenic actions or malformations (rabbits): no teratogenic actions were encountered or any malformations
anti-inflammatory activity (arthritis by adjuvant): active
carotid pressure, cardiac and respiratory frequency, electrocardiac trace (cat): does not cause any change
therapeutic (antalgic) effect ([4]; neurological frameworks, 6 mg twice a day intermuscular or 13-20 mg 3-4 times per day orally): available and efficient from the first day of administration
therapeutic effect in recurring and resistant cephalalgia ([4]; orally in masticable tablets): Analogous results were obtained
accumulation of lipids at the hepatocite level (hepatic steatosis): significantly reduces
local tolerability of the intramuscular injection (rabbit [5]; intramuscular, even repeated over 180 days): excellent
local tolerability of the intravenous injection (rabbit [5]; intravenous, marginal vein of the auricular pavilion of the rabbit): excellent
albumin level [6]: an increase in the albumin level
percentage ratios between the electrophoretic fractions of the serum [6]: a tendency to normalise
subjective symptomology and general objective conditions [6]: often very important improvement
tests of hepatic functionality [6]: normalising of all the tests of hepatic functionality
total protidemia [6]: a statistically significant increase
Distribution of SAM in rat tissues: Hypophysis ([7]; 0.25 h): 2.3 μgr/gr
Distribution of SAM in rat tissues: Hypothalamus ([7]; 0.25 h): 0.3 μgr/gr
Distribution of SAM in rat tissues: Liver ([7]; 0.25 h): 1.7 μgr/gr
Distribution of SAM in rat tissues: Plasma ([7]; 0.25 h): 7.5 μgr/gr
Distribution of SAM in rat tissues: Rind ([7]; 0.25 h): 0.25 μgr/gr
Distribution of SAM in rat tissues: Spleen ([7]; 0.25 h): 1.3 μgr/gr
Distribution of SAM in rat tissues: Suprarenal glands ([7]; 0.25 h): 1.9 μgr/gr
Distribution of SAM in rat tissues: Hypophysis ([7]; 1 h): 2.5 μgr/gr
Distribution of SAM in rat tissues: Hypothalamus ([7]; 1 h): 0.65 μgr/gr
Distribution of SAM in rat tissues: Liver ([7]; 1 h): 3.0 μgr/gr
Distribution of SAM in rat tissues: Plasma ([7]; 1 h): 2.1 μgr/gr
Distribution of SAM in rat tissues: Rind ([7]; 1 h): 0.45 μgr/gr
Distribution of SAM in rat tissues: Spleen ([7]; 1 h): 1.2 μgr/gr
Distribution of SAM in rat tissues: Suprarenal glands ([7]; 1 h): 3.4 μgr/gr
Distribution of SAM in rat tissues: Hypophysis ([7]; 4 h): 8.0 μgr/gr
Distribution of SAM in rat tissues: Hypothalamus ([7]; 4 h): 1.0 μgr/gr
Distribution of SAM in rat tissues: Liver ([7]; 4 h): 5.5 μgr/gr
Distribution of SAM in rat tissues: Plasma ([7]; 4 h): 2.3 μgr/gr
Distribution of SAM in rat tissues: Rind ([7]; 4 h): 0.75 μgr/gr
Distribution of SAM in rat tissues: Spleen ([7]; 4 h): 3.5 μgr/gr
Distribution of SAM in rat tissues: Suprarenal glands ([7]; 4 h): 4.8 μgr/gr
Distribution of SAM in rat tissues: Hypophysis ([7]; 8 h): 4.5 μgr/gr
Distribution of SAM in rat tissues: Hypothalamus ([7]; 8 h): 1.3 μgr/gr
Distribution of SAM in rat tissues: Liver ([7]; 8 h): 5.6 μgr/gr
Distribution of SAM in rat tissues: Plasma ([7]; 8 h): 2.0 μgr/gr
Distribution of SAM in rat tissues: Rind ([7]; 8 h): 8.5 μgr/gr
Distribution of SAM in rat tissues: Spleen ([7]; 8 h): 2.6 μgr/gr
Distribution of SAM in rat tissues: Suprarenal glands ([7]; 8 h): 4.5 μgr/gr
Distribution of SAM in rat tissues: Hypophysis ([7]; 24 h): 4.2 μgr/gr
Distribution of SAM in rat tissues: Hypothalamus ([7]; 24 h): 1.3 μgr/gr
Distribution of SAM in rat tissues: Liver ([7]; 24 h): 5.7 μgr/gr
Distribution of SAM in rat tissues: Plasma ([7]; 24 h): 1.1 μgr/gr
Distribution of SAM in rat tissues: Rind ([7]; 24 h): 9.4 μgr/gr
Distribution of SAM in rat tissues: Spleen ([7]; 24 h): 2.8 μgr/gr
Distribution of SAM in rat tissues: Suprarenal glands ([7]; 24 h): 4.4 μgr/gr
distribution to tissues ([7]; rat): distributed very rapidly to all the tissues
symptomatology in arteriosclerosis ([8]; intermuscular, intravenous or slow phleboclysis, 8 to 16 mg 3-4 times per day): a very favourable modification of the symptomatology
improvement of the clinical framework in post-apoplectic syndromes ([8]; post-apoplectic syndromes): a greater rapidity was found in the improvement
analgesic activity (Randal and Selitto test): active
sleeping-waking ratios [9]: considerably improve
activity in osteoarthritic forms (osteoarthritic forms; 13 mg twice a day intermuscular or intravenous, and 13-20 mg orally 4 times per day): active in all osteoarthritic forms
muscular spasm, limitation of movement, localised pain and rigidity (osteoarthritic forms; after 7 days, with respect to the placebo): influenced in a statistically significant manner
therapeutic efficiency vs non-steroid antiphlogistic drug (osteoarthritic forms; double blind study): equal to indomethacin
teratogenic actions or malformations (rats): no teratogenic actions were encountered or any malformations
restoration of normal levels of phospholipids (hepatic phospholipids): favours the restoration of normal levels of phospholipids
distribution to tissues [10]: distributed very rapidly to all the tissues
prolonging the sleeping time induced by hexobarbital [11]: active in prolonging the sleeping time

Source: patent publication US4057686A, “Sulphonic acid salts of S-adenosilmethionine” (Bioresearch Limited, priority 1974, dated 1977)
